Measurements: paper PMC3252880, “Synthesis of 2-amino-3-arylpropan-1-ols and 1-(2,3-diaminopropyl)-1,2,3-triazoles and evaluation of their antimalarial activity” (Beilstein Journal of Organic Chemistry, 2011)
Where “and” joins values, the source holds several entries; their conditions need not be identical. Equal values may be shown once. Read-outs that look alike come from different tables or passages of the source.

Columns and labels:
[1] = tested on: chloroquine-sensitive (CQS) strain of P. falciparum (D10); experiment: in vitro antiplasmodial activity, chloroquine-sensitive strain D10; assay type: cell-based, Plasmodium falciparum; settings: for antiplasmodial activity (in words): in vitro, P. falciparum
Protocol: All samples were tested in triplicate on one occasion against a chloroquine-sensitive (CQS) strain of P. falciparum (D10). […] The antiplasmodial and cytotoxicity assays were performed as described previously.

[2] = tested on: Chinese hamster ovary (CHO) cell-line; experiment: in vitro cytotoxicity against CHO cell-line; assay type: cell-based; settings: for IC50: read-out: CHO: IC50; for SI (Selectivity Index) = IC50 CHO/IC50 D10: ratio CHO/D10
Protocol: At first, compounds 6a–c, 8a–e, 9a–d, 12a,b, 14a–e, 15a–f and 16a–g were screened for in vitro antiplasmodial activity. All samples were tested in triplicate on one occasion against a chloroquine-sensitive (CQS) strain of P. falciparum (D10). Those samples showing antiplasmodial activity were then tested in triplicate on one occasion against a chloroquine-resistant (CQR) strain of P. falciparum (Dd2) and screened for in vitro cytotoxicity against a Chinese hamster ovary (CHO) cell-line, in triplicate on one occasion. The antiplasmodial and cytotoxicity assays were performed as described previously.

[3] = tested on: chloroquine-resistant (CQR) strain of P. falciparum (Dd2); experiment: in vitro antiplasmodial activity, chloroquine-resistant strain Dd2; assay type: cell-based, Plasmodium falciparum; settings: for RI (Resistance Index) = IC50 Dd2/IC50 D10: ratio Dd2/D10
P. falciparum = tested on: P. falciparum; parameters: method as in PMID 17194200, PMID 14500986; settings: cited from earlier work
P. berghei = tested on: P. berghei; parameters: method as in PMID 17194200, PMID 14500986; settings: in vivo; cited from earlier work
[4] = CQS strain D10, tested in triplicate on one occasion, hydrophobic samples added as suspension, read-out: D10: IC50
[5] = CHO cell-line, in triplicate on one occasion
[6] = CQR strain Dd2, tested in triplicate on one occasion, read-out: Dd2: IC50
[7] = Plasmodium falciparum, DD2, read-out: Dd2: IC50
[8] = Plasmodium falciparum, D10, CQS strain D10, tested in triplicate on one occasion, hydrophobic samples added as suspension, read-out: D10: IC50
[9] = Plasmodium falciparum, D10, read-out: D10: IC50, CQS strain D10, tested in triplicate on one occasion, hydrophobic samples added as suspension
[10] = read-out: D10: IC50, CQS strain D10, tested in triplicate on one occasion, hydrophobic samples added as suspension
[11] = Cricetulus griseus, CHO cell-line, in triplicate on one occasion
[12] = Plasmodium falciparum, CQR strain Dd2, tested in triplicate on one occasion, read-out: Dd2: IC50

Work on `COC(c1ccccc1)C(CO)NC(C)C` (racemic) [Compound 8a] yielded an IC50 [1, 4] of 370 µM.
Compound `COC(c1ccccc1)C(CO)NCc1ccccc1` (racemic) [Compound 8b] has an IC50 [1, 4] of 144 µM.
`COC(c1ccc(Cl)cc1)C(CO)NCc1ccccc1` (racemic) [Compound 8c] showed an IC50 [1, 4] of 199 µM.
In the case of `COc1ccc(C(OC)C(CO)NCC(C)C)cc1` (racemic) [Compound 8d], the IC50 [2, 5] is reported as over 530 µM, the IC50 [3, 6] is reported as 25.7 µM and the “RI (Resistance Index) = IC50 Dd2/IC50 D10” value [3] is reported as 0.7. It also gave an IC50 [1, 4] of 38.6 µM.
For `CCCNC(CO)C(OC)c1ccccc1F` (racemic) [Compound 8e], the IC50 [2, 5] was over 530 µM, the IC50 [3, 6] was 21.9 µM and the “RI (Resistance Index) = IC50 Dd2/IC50 D10” value [3] was 0.6. It also gave an IC50 [1, 4] of 38.5 µM.
With `OCC(NCc1ccccc1)C(O)c1ccccc1Cl` (racemic) [Compound 9b] the IC50 [2, 5] was over 530 µM, the IC50 [3, 6] was 13.6 µM and the “RI (Resistance Index) = IC50 Dd2/IC50 D10” value [3] was 0.6. For the same compound, the IC50 [1, 4] was ≤ 25 µM and 21.2 µM.
Work on `Cc1ccc(C(O)C(CO)NCc2ccccc2)cc1` (racemic) [Compound 9c] yielded an IC50 [1, 4] of 130 µM.
Work on `OCC(NCc1ccc(Cl)cc1)C(O)c1ccccc1` (racemic) [Compound 9d] yielded an IC50 [1, 4] of 80.7 µM.
With `CCN(CC)CCCC(C)Nc1ccnc2cc(Cl)ccc12` (centres unmarked) [CQ, reference compound] the IC50 [3, 7] was 0.0756 µg/mL, the “RI (Resistance Index) = IC50 Dd2/IC50 D10” value [3] was 3.9 and the IC50 ([1]; Plasmodium falciparum, D10, read-out: D10: IC50, CQS strain D10, n = 6 data sets averaged) was 0.0191 µg/mL.
With `OCC(Cc1ccc(Cl)cc1)NCc1ccccc1` (centres unmarked) [Compound 6a] the IC50 [2, 5] was 138 µM, the “SI (Selectivity Index) = IC50 CHO/IC50 D10” value [2] was 11 and the IC50 [3, 6] was 10.9 µM. The “RI (Resistance Index) = IC50 Dd2/IC50 D10” value [3] was 0.9 and the IC50 [1, 4] was ≤ 25 µM and 12.6 µM.
For `COc1ccc(CC(CO)NCC(C)C)cc1` (centres unmarked) [Compound 6b], the IC50 [1, 4] was 282 µM.
For `CCCNC(CO)Cc1ccccc1F` (centres unmarked) [Compound 6c], the IC50 [1, 4] was 217 µM.
With `OCC(NCc1ccccc1)C(O)c1ccc(Cl)cc1` (stereo not drawn) [Compound 9a, anti-2-(N-Benzylamino)-1-(4-chlorophenyl)propan-1,3-diol] the IC50 [2, 5] was over 530 µM, the IC50 [3, 6] was 8.47 µM and the “RI (Resistance Index) = IC50 Dd2/IC50 D10” value [3] was 0.3. The IC50 [1, 4] was ≤ 25 µM and 25.2 µM.
In the case of `COc1ccccc1[C@@H](O)[C@@H](CO)NC(C)(C)C` [Compound 12a, syn-2-(N-tert-Butylamino)-1-(2-methoxyphenyl)propan-1,3-diol], the melting point is reported as 112.8 °C and the IC50 [1, 8] is reported as 98.7 µM.
For `CC(C)(C)N[C@H](CO)[C@H](O)c1ccccc1F` [Compound 12b], the IC50 [1, 8] was 60.5 µM.
With `[N-]=[N+]=NCC1CN1Cc1ccccc1` (centres unmarked) [Compound 14a, 2-Azidomethyl-1-(phenylmethyl)aziridine] the IC50 ([2]; Cricetulus griseus, CHO) was over 530 µM, the IC50 [3, 7] was 467 µM and the “RI (Resistance Index) = IC50 Dd2/IC50 D10” value [3] was 2. It also gave an IC50 [1, 9] of 230 µM.
`[N-]=[N+]=NCC1CN1Cc1ccc(Cl)cc1` (centres unmarked) [Compound 14b] gave an IC50 [1, 4] of 101 µM.
For `COc1ccc(CN2CC2CN=[N+]=[N-])cc1` (centres unmarked) [Compound 14c], the IC50 [1, 4] was 160 µM.
With `[N-]=[N+]=NCC1CN1Cc1ccccc1Cl` (centres unmarked) [Compound 14d] the IC50 [1, 4] was 93.7 µM.
In the case of `[N-]=[N+]=NCC1CN1Cc1cccc(Cl)c1` (centres unmarked) [Compound 14e], the IC50 [1, 4] is reported as 180 µM.
For `c1ccc(CN2CC2Cn2cc(-c3ccccc3)nn2)cc1` (centres unmarked) [Compound 15a, 1-Phenylmethyl-2-[(4-phenyl-1,2,3-triazol-1-yl)methyl]aziridine], the IC50 ([2]; Cricetulus griseus, CHO) was over 530 µM, the IC50 [3, 7] was 107 µM and the “RI (Resistance Index) = IC50 Dd2/IC50 D10” value [3] was 3.1. It also gave an IC50 [1, 9] of 34.4 µM.
`Clc1ccc(CN2CC2Cn2cc(-c3ccccc3)nn2)cc1` (centres unmarked) [Compound 15b] showed an IC50 [1, 4] of 41.3 µM.
With `COc1ccc(CN2CC2Cn2cc(-c3ccccc3)nn2)cc1` (centres unmarked) [Compound 15c] the IC50 ([2]; Cricetulus griseus, CHO) was over 530 µM, the IC50 [3, 7] was 55.6 µM and the “RI (Resistance Index) = IC50 Dd2/IC50 D10” value [3] was 2.2. The IC50 [1, 9] was at most 25 µM, the “antiplasmodial activity (in words)” value [1] was “weak antiplasmodial activity” and the IC50 [1, 10] was 25.7 µM.
For `Cc1ccc(-c2cn(CC3CN3Cc3ccccc3)nn2)cc1` (centres unmarked) [Compound 15d], the IC50 ([2]; Cricetulus griseus, CHO) was over 530 µM, the IC50 [3, 7] was 21 µM and the “RI (Resistance Index) = IC50 Dd2/IC50 D10” value [3] was 1. For the same compound, the IC50 [1, 9] was at most 25 µM, the “antiplasmodial activity (in words)” value [1] was “weak antiplasmodial activity” and the IC50 [1, 10] was 20.4 µM.
In the case of `COc1ccc(-c2cn(CC3CN3Cc3ccccc3)nn2)cc1` (centres unmarked) [Compound 15e], the IC50 [1, 9] is reported as 40.5 µM.
For `CCN(CC)CC(Cn1cc(-c2ccccc2)nn1)NCc1ccccc1` (centres unmarked) [Compound 16a, 3-Diethylamino-2-(phenylmethyl)amino-1-(4-phenyl-1,2,3-triazol-1-yl)propane], the IC50 [2, 11] was over 530 µM, the IC50 [3, 12] was 231 µM and the “RI (Resistance Index) = IC50 Dd2/IC50 D10” value [3] was 10.5. For the same compound, the IC50 [1, 4] was 22.1 µM and the IC50 [1, 8] was at most 25 µM.
For `CCN(CC)CC(Cn1cc(-c2ccccc2)nn1)NCc1ccc(Cl)cc1` (centres unmarked) [Compound 16b], the IC50 [2, 5] was over 530 µM, the IC50 [3, 6] was 176 µM and the “RI (Resistance Index) = IC50 Dd2/IC50 D10” value [3] was 6.8. The IC50 [1, 4] was ≤ 25 µM and 25.9 µM.
`CCN(CC)CC(Cn1cc(-c2ccccc2)nn1)NCc1ccc(OC)cc1` (centres unmarked) [Compound 16c] gave an IC50 [1, 4] of 140 µM.
With `CCN(CC)CC(Cn1cc(-c2ccc(C)cc2)nn1)NCc1ccccc1` (centres unmarked) [Compound 16d] the IC50 [1, 4] was 32.5 µM.
Compound `CCN(CC)CC(Cn1cc(-c2ccc(OC)cc2)nn1)NCc1ccccc1` (centres unmarked) [Compound 16e] has an IC50 [1, 8] of 171 µM.
In the case of `CN(C)CC(Cn1cc(-c2ccccc2)nn1)NCc1ccccc1Cl` (centres unmarked) [Compound 16f], the IC50 [2, 11] is reported as 182 µM, the “SI (Selectivity Index) = IC50 CHO/IC50 D10” value [2] is reported as 16.1 and the IC50 [3, 12] is reported as 13 µM. The “RI (Resistance Index) = IC50 Dd2/IC50 D10” value [3] was 1.2.
In the case of `CN(C)CC(Cn1cc(-c2ccccc2)nn1)NCc1ccccc1` (centres unmarked) [Compound 16g], the IC50 [1, 4] is reported as 69.6 µM.
`CC[C@H]1CN2CCc3cc(OC)c(OC)cc3[C@@H]2C[C@@H]1C[C@H]1NCCc2cc(OC)c(OC)cc21` [Emetine, reference compound] showed an IC50 [2, 11] of 0.27 µM.
In the case of `CC(C)NCC(O)COc1cccc2ccccc12` (centres unmarked) [propranolol], the “infection of erythrocytes by P. falciparum” value (P. falciparum) is listed as “inhibit infection of erythrocytes” and the “parasitaemia of P. berghei infections” value (P. berghei) is listed as “reduce the parasitaemia”.
